In paper PMC10819888, “Benzimidazole-Based Derivatives as Apoptotic Antiproliferative Agents: Design, Synthesis, Docking, and Mechanistic Studies” (Molecules, 2024):

Columns and labels:
[1] = system: Bcl-2; assay: Bcl-2 inhibition assay; format: cell-based, human; details: PC-3 cell line; for down-regulation of anti-apoptotic Bcl-2 protein levels: compared to staurosporine
Experimental: For more details, see Supplementary Materials. […]
4.2.6. Bcl-2 inhibition assay
Mix all reagents thoroughly without foaming before use. Wash the microwells twice with approximately 300 μL Wash Buffer per well with thorough aspiration of microwell contents between washes. Take caution not to scratch the surface of the microwells.
After the last wash, empty the wells and tap microwell strips on absorbent pad or paper towel to remove excess Wash Buffer. Use the microwell strips immediately after washing or place upside down on a wet absorbent paper for not longer than 15 minutes.
Add 100 μL of Sample Diluent in duplicate to all standard wells and to the blank wells. Prepare standard (1:2 dilution) in duplicate ranging from 32 ng/mL to 0.5 ng/mL. Add 100 μL of Sample Diluent, in duplicate, to the blank wells.
Add 80 μL of Sample Diluent, in duplicate, to the sample wells. Add 20 μL of each Sample, in duplicate, to the designated wells. Add 50 μL of diluted biotin-conjugate to all wells, including the blank wells. Cover with a plate cover and incubate at room temperature, on a microplate shaker at 100 rpm if available, for 2 hours. Remove plate cover and empty the wells. Wash microwell strips 3 times as described in step 2. Add 100 μL of diluted Streptavidin-HRP to all wells, including the blank wells. Cover with a plate cover and incubate at room temperature, on a microplate shaker at 100 rpm if available, for 1 hour. Remove plate cover and empty the wells. Wash microwell strips […]
3 times as described in step 2. Proceed to the next step. Pipette 100 μl of mixed TMB Substrate Solution to all wells, including the blanks. Incubate the microwell strips at room temperature (18° to 25°C) for about 15 minutes, if available on a rotator set at 100 rpm. Avoid direct exposure to intense light. The point, at which the substrate reaction is stopped, is often determined by the ELISA reader. Many ELISA readers record absorbance only up to 2.0 O.D. Therefore, the color development within individual microwells must be watched by the person running the assay and the substrate reaction stopped before positive wells are no longer properly detectable. Stop the enzyme reaction by quickly pipetting 100 μL of Stop Solution into each well, including the blank wells. It is important that the Stop Solution is spread quickly and uniformly throughout the microwells to completely inactivate the enzyme. Results must be read immediately after the Stop Solution is added or within one hour if the microwell strips are stored at 2 - 8°C in the dark. Read absorbance of each microwell on a spectrophotometer using 450 nm as the primary wavelength.
4.3. Statistical analysis
Computerized Prism 5 program was used to statistically analyzed data using one-way ANOVA test followed by Tukey’s as post ANOVA for multiple comparison at P ≤.05.
Data were presented as mean ± SEM.

[2] = system: Bax; assay: Bax activation assay; format: cell-based, human; details: PC-3 cell line
Experimental: For more details, see Supplementary Materials.
4.2.5. Bax activation assay
Bring all reagents, except the human Bax-α Standard, to room temperature for at least 30 minutes prior to opening. The human Bax -α Standard solution should not be left at room temperature for more than 10 minutes. All standards, controls and samples should be run in duplicate. Refer to the Assay Layout Sheet to determine the number of wells to be used and put any remaining wells with the desiccant back into the pouch and seal the ziploc. Store unused wells at 4 °C. Pipet 100 μL of Assay Buffer into the S0 ( 0 pg/mL standard) wells. Pipet 100 μL of Standards #1 through #6 into the appropriate wells. Pipet 100 μL of the Samples into the appropriate wells. Tap the plate gently to mix the contents. Seal the plate and incubate at room temperature on a plate shaker for 1 hour at ~500 rpm. Empty the contents of the wells and wash by adding 400 μL of wash solution to every well. Repeat the wash 4 more times for a total of 5 washes. After the final wash, empty or aspirate the wells and firmly tap the plate on a lint fr ee paper towel to remove any remaining wash buffer. Pipet 100 μL of yellow Antibody into each well, except the Blank. Seal the plate and incubate at room temperature on a plate shaker for 1 hour at ~500 rpm. Empty the contents of the wells and wash by addi ng 400 μL of […]
the final wash, empty or aspirate the wells and firmly tap the plate on a lint free paper towel to remove any remaining wash buffer. Add 100 μL of blue Co njugate to each well, except the Blank. Seal the plate and incubate at room temperature on a plate shaker for 30 minutes at ~500 rpm. Empty the contents of the wells and wash by adding 400 μL of wash solution to every well. Repeat the wash 4 more times for a total of 5 washes .
After the final wash, empty or aspirate the wells and firmly tap the plate on a lint free paper towel to remove any remaining wash buffer. Pipet 100 μL of Substrate Solution into each well. Incubate for 30 minutes at room temperature on a plate shaker at ~500 rpm. Pipet 100 μL Stop Solution to each well. Blank the plate reader against the Blank wells, read the optical density at 450 nm. Calculate the average net Optical Density (OD) bound for each standard and sample by subtracting the average Blank OD from the average OD for each standard and sample. Using linear graph paper, plot the Average Net OD for each standard versus Bax concentration in each standard.
Approximate a straight line through the points. The concentration of Bax in the unknowns can be determined by interpolation. […]

Row | Compound | Bcl-2 Conc [1] [ng/mL] | down-regulation of anti-apoptotic Bcl-2 protein levels [1] | Bax Conc [2] [pg/mL] | Bax increase compared to untreated PC-3 cancer cells [2] [fold] | Bax level [2] [pg/mL] | Bcl-2 Fold Reduction ([1]; vs control) | Bax Fold Change ([2]; vs control)
1 | O=C(NN=Cc1ccc([N+](=O)[O-])cc1)c1ccc2[nH]c(-c3ccc(Cl)cc3)nc2c1 [Compound 4c, N′-(4-Nitrobenzylidene)-2-(4-chlorophenyl)-1H-benzimidazole-5-carbohydrazide] | 0.80 | equipotent down-regulation | 185 | 26 | 185 |  | 
2 | O=C(NN=Cc1ccc(Cl)cc1)c1ccc2[nH]c(-c3ccc(Cl)cc3)nc2c1 [Compound 4e, N′-(4-Chlorobenzylidene)-2-(4-chlorophenyl)-1H-benzimidazole-5-carbohydrazide] | 0.75 | equipotent down-regulation | 220 | 31 | 220 | 4 | 31
